Some test systems named below: COLO 205; SF-295; CAKI-1; TK-10; 786-0; SNB-19; SF-268; Hs-578T; OVCAR-3; KM12; NCI-H522; HT-29; SR; CCRF-CEM; LOX IMVI; HL-60; NCI-H460; HCT-116; MDA-MB-435; HOP-62.
What all share (assay): growth of human tumour cells (NCI), 48 h

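Assay format: 96-well plates, 48-hour exposure. GI50 = concentration required for 50% inhibition of growth.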 Active and inactive are the calls of the source. Rule as the data show it: active = GI50 up to about 1.1 µM and inactive = higher. Where only a bound is given, the exact number is not on record here.

For the molecule `O[C@H]1[C@H](O)[C@@H](Cn2nnc(-c3ccccc3)c2-c2ccccc2)OCO[C@@H]1Cn1nnc(-c2ccccc2)c1-c1ccccc1`, the GI50 is 4.99 µM (inactive) in the assay with COLO 205; 3.78 µM (inactive) in the assay on SF-295; 5.73 µM (inactive) in the assay with CAKI-1; 5.14 µM (inactive) in the assay with TK-10; 2.88 µM (inactive) in the assay with 786-0; 8.89 µM (inactive) with SNB-19. In addition, the GI50 was 4.85 µM (inactive) in the assay with SF-268; 6.85 µM (inactive) in the assay with Hs-578T; 2.96 µM (inactive) in the assay with OVCAR-3; 3.63 µM (inactive) in the assay with KM12; 5.31 µM (inactive) in the assay on NCI-H522; 2.26 µM (inactive) with HT-29. Besides, the GI50 is 2.04 µM (inactive) with SR; 3.53 µM (inactive) in the assay on CCRF-CEM; 2.32 µM (inactive) in the assay on LOX IMVI; 3.88 µM (inactive) in the assay with HL-60; 3.67 µM (inactive) in the assay with NCI-H460; 3.11 µM (inactive) with HCT-116. For the same molecule, the GI50 with MDA-MB-435 is 5.04 µM (inactive); in the assay with HOP-62 it was 13.1 µM (inactive).

In the case of `[O-][S+](Nc1ccccc1)c1cccc(Cl)c1` (centres undefined), the GI50 with COLO 205 is > 100 µM (inactive); with SF-295, 65.3 µM (inactive); with CAKI-1, 91 µM (inactive); in the assay on TK-10, > 100 µM (inactive); in the assay on 786-0 it was > 100 µM (inactive); in the assay with SNB-19, > 100 µM (inactive). Moreover, the GI50 in the assay with SF-268 is 44.1 µM (inactive); in the assay with Hs-578T it was 86.3 µM (inactive); in the assay with OVCAR-3, > 100 µM (inactive); with KM12 it was 34.2 µM (inactive); with NCI-H522 it was 57.3 µM (inactive); in the assay with HT-29, > 100 µM (inactive). In addition, the GI50 in the assay with SR was 25.5 µM (inactive); in the assay on CCRF-CEM, 50.4 µM (inactive); in the assay on LOX IMVI it was 60.5 µM (inactive); in the assay on HL-60, 48.6 µM (inactive); with NCI-H460, 42.5 µM (inactive); in the assay with HCT-116 it was 45.2 µM (inactive). Also, the GI50 was 72.1 µM (inactive) in the assay with MDA-MB-435 and > 100 µM (inactive) in the assay on HOP-62.

For the molecule `Cc1c2ccnc(C(=O)NCCN(C)C)c2cc2c3cc(O)ccc3n(C)c12`, the GI50 in the assay on COLO 205 was 0.268 µM (active); with SF-295, 0.0671 µM (active); in the assay with CAKI-1 it was < 0.01 µM (active); in the assay with TK-10, 2 µM (inactive); in the assay with 786-0 it was 0.0542 µM (active); in the assay on SNB-19, 0.184 µM (active). Further, the GI50 in the assay on SF-268 is 0.0676 µM (active); with Hs-578T it was 0.204 µM (active); in the assay with OVCAR-3 it was 0.357 µM (active); in the assay on KM12 it was 0.678 µM (active); with NCI-H522, 0.236 µM (active); in the assay on HT-29, 0.479 µM (active). Also, the GI50 with SR was < 0.0184 µM (active); in the assay on CCRF-CEM, < 0.0145 µM (active); in the assay on LOX IMVI it was 0.11 µM (active); in the assay on HL-60, < 0.022 µM (active); in the assay with NCI-H460 it was < 0.01 µM (active); with HCT-116, 0.0608 µM (active). For the same molecule, the GI50 is 0.282 µM (active) with MDA-MB-435 and 0.0368 µM (active) in the assay on HOP-62.

For the molecule `C[N+]1(CCC(=O)c2ccccc2)CCC2CCC(C2)C1` (centres undefined), the GI50 with COLO 205, in the assay with SF-295, in the assay on CAKI-1, in the assay on TK-10, in the assay on 786-0 and in the assay with SNB-19 was > 100 µM (inactive) throughout. Besides, the GI50 with SF-268, with Hs-578T, with OVCAR-3, with KM12, with NCI-H522 and with HT-29 was > 100 µM (inactive) in each case. For the same molecule, the GI50 in the assay with SR, in the assay on CCRF-CEM, in the assay on LOX IMVI, in the assay with HL-60, in the assay with NCI-H460 and in the assay with HCT-116 was > 100 µM (inactive) in each case. Further, the GI50 with MDA-MB-435 and in the assay on HOP-62 was > 100 µM (inactive) in each case.

As to `COc1ccc(C(C)NNC(=O)c2cc[n+]([BH2-]C#N)cc2)cc1OC` (centres undefined), the GI50 with COLO 205, in the assay on SF-295, in the assay with CAKI-1, with TK-10, in the assay with 786-0 and in the assay with SNB-19 was > 100 µM (inactive) throughout. For the same molecule, the GI50 in the assay with SF-268, in the assay on Hs-578T, in the assay with OVCAR-3, in the assay with KM12, with NCI-H522 and in the assay on HT-29 was > 100 µM (inactive) each time. Moreover, the GI50 in the assay with SR, with CCRF-CEM, in the assay with LOX IMVI, with HL-60, in the assay on NCI-H460 and with HCT-116 was > 100 µM (inactive) in each case. Also, the GI50 in the assay on MDA-MB-435 and in the assay on HOP-62 was > 100 µM (inactive) throughout.

Regarding `COc1cccc([C@H]2C/C(=N\NC(=O)C(=O)N[C@@H](C)c3ccccc3)c3ccccc3N2)c1`, the GI50 was 0.0167 µM (active) in the assay on COLO 205; < 0.01 µM (active) with SF-295; 0.0354 µM (active) in the assay on CAKI-1; > 10 µM (inactive) in the assay with TK-10; 0.0374 µM (active) in the assay on 786-0; 6.52 µM (inactive) in the assay with SNB-19. For the same molecule, the GI50 was 7.05 µM (inactive) in the assay on SF-268; 0.0237 µM (active) with Hs-578T; 0.0181 µM (active) with OVCAR-3; < 0.01 µM (active) in the assay on KM12; 9.42 µM (inactive) in the assay with NCI-H522; > 10 µM (inactive) in the assay with HT-29. Also, the GI50 in the assay with SR was > 10 µM (inactive); in the assay on CCRF-CEM, 0.0188 µM (active); in the assay with LOX IMVI it was 0.0721 µM (active); with HL-60, > 10 µM (inactive); in the assay with NCI-H460, > 10 µM (inactive); with HCT-116, 0.0209 µM (active). Besides, the GI50 with MDA-MB-435 is < 0.01 µM (active); in the assay on HOP-62, 4.51 µM (inactive).

As to `COc1ccc(N)c(C(O)CCNC(C)=O)c1` (centres undefined), the GI50 in the assay with COLO 205, in the assay with SF-295, in the assay with CAKI-1, in the assay on TK-10, with 786-0 and in the assay with SNB-19 was > 100 µM (inactive) in each case. Also, the GI50 in the assay with SF-268, with Hs-578T, in the assay with OVCAR-3, in the assay with KM12, with NCI-H522 and in the assay with HT-29 was > 100 µM (inactive) each time. Further, the GI50 in the assay on SR, with CCRF-CEM, with LOX IMVI, in the assay with HL-60, in the assay with NCI-H460 and with HCT-116 was > 100 µM (inactive) each time. The GI50 in the assay on MDA-MB-435 was > 100 µM (inactive).

For the molecule `O=C1NC(=S)N(c2cccc3ccccc23)C(=O)/C1=C/c1c[nH]c2ccccc12`, the GI50 with COLO 205 was 1.84 µM (inactive); in the assay on SF-295, 3.07 µM (inactive); in the assay on CAKI-1, 2.54 µM (inactive); in the assay with TK-10 it was 2.67 µM (inactive); with 786-0, 1.71 µM (inactive); in the assay with SNB-19, 3.08 µM (inactive). For the same molecule, the GI50 was 2.64 µM (inactive) in the assay on SF-268; 3.52 µM (inactive) with Hs-578T; 3.38 µM (inactive) in the assay on OVCAR-3; 2.32 µM (inactive) in the assay with KM12; 2.78 µM (inactive) in the assay on NCI-H522; 2.17 µM (inactive) in the assay with HT-29. In addition, the GI50 is 1.41 µM (inactive) in the assay with SR; 1.76 µM (inactive) in the assay on CCRF-CEM; 1.82 µM (inactive) with LOX IMVI; 2.21 µM (inactive) in the assay on HL-60; 2.36 µM (inactive) with NCI-H460; 2.01 µM (inactive) in the assay with HCT-116. The GI50 with MDA-MB-435 was 2.34 µM (inactive); in the assay on HOP-62 it was 2.83 µM (inactive).

With `O=[N+]([O-])c1ccc2c(/N=N/c3c(O)ccc4ccccc34)c(O)cc(S(=O)(=O)O)c2c1`, the GI50 was 18.3 µM (inactive) in the assay on COLO 205; 13.3 µM (inactive) in the assay on SF-295; 4.86 µM (inactive) in the assay with CAKI-1; 37.1 µM (inactive) with TK-10; 11.7 µM (inactive) in the assay with 786-0; 15 µM (inactive) in the assay with SNB-19. In addition, the GI50 is 7.31 µM (inactive) in the assay on SF-268; > 50 µM (inactive) in the assay on Hs-578T; 1.69 µM (inactive) in the assay with OVCAR-3; 24.2 µM (inactive) in the assay with KM12; 4.76 µM (inactive) in the assay on NCI-H522; 25.4 µM (inactive) with HT-29. In addition, the GI50 with SR was 26.2 µM (inactive); with CCRF-CEM it was 0.869 µM (active); in the assay on LOX IMVI it was 17.4 µM (inactive); in the assay with HL-60 it was 1.09 µM (active); in the assay on NCI-H460, 44.4 µM (inactive); in the assay with HCT-116 it was 14.4 µM (inactive). Besides, the values for the GI50 in the assay with MDA-MB-435 and in the assay on HOP-62 were 7.98 µM (inactive) and 6.73 µM (inactive), respectively.

With `O=C(O)COc1cc(-c2ccccc2)nc2ccccc12`, the GI50 was 51.1 µM (inactive) with COLO 205; 44.4 µM (inactive) in the assay with SF-295; > 100 µM (inactive) with CAKI-1; > 100 µM (inactive) with TK-10; 81.8 µM (inactive) in the assay on 786-0; 98.4 µM (inactive) in the assay with SNB-19. Besides, the GI50 in the assay on SF-268 is > 100 µM (inactive); with Hs-578T it was 62.4 µM (inactive); in the assay on OVCAR-3 it was > 100 µM (inactive); with KM12 it was 50.1 µM (inactive); with NCI-H522, 77.4 µM (inactive); in the assay on HT-29, 35.4 µM (inactive). Also, the GI50 was 63 µM (inactive) with SR; 56.2 µM (inactive) in the assay with CCRF-CEM; 99.8 µM (inactive) in the assay on LOX IMVI; 41.2 µM (inactive) in the assay with HL-60; 48 µM (inactive) in the assay with NCI-H460; 36.8 µM (inactive) with HCT-116. Further, the GI50 was 16 µM (inactive) in the assay with MDA-MB-435 and 95.9 µM (inactive) with HOP-62.

Source of the values: ChEMBL document CHEMBL1201862, “PubChem BioAssay data set” (2004).
